Measured values published in patent US12491180B2, “Application of compound in treating pneumonia” (SHENZHEN OPTIMUM BIOLOGICAL TECHNOLOGY CO., LTD., priority 2019, dated 2025).
≈ marks a conversion by molar mass, not a printed value.

What was measured:
Assay in all cases: MIC, solid dilution method
Assay type in all cases: cell-based
E. coli 11256 = details: Escherichia coli; E. coli 11256; MHA agar, 37° C., 16-20 hours; read-out: MIC
Protocol: (§1) The above-mentioned glycerol-preserved strains were taken out from the −80° C. refrigerator, streaked and inoculated on MHA plates, labeled, and cultured overnight in a 37° C. incubator.
(§2) The inoculum was prepared directly from bacterial suspension, and several recovered colonies were picked and directly prepared into a bacterial suspension with a turbidity of No. 0.5 McFarland units in normal saline, and a 10-fold dilution was made during inoculation.
(§3) 6 bottles of MHA culture medium 500 mL/bottle were prepared, and the pH was adjusted to 7.2-7.4, sterilized at 121° C. for 15 min, and the medium was placed in a 55° C. water bath to keep warm.
(§4) Sterile blank petri dishes were taken, and marked with each FL drug/concentration according to 2-fold dilution, and 10 concentrations of each drug starting from 8 μg/mL were tested.
(§5) […]; 20 mL was aspirated and added to a petri dish consistent with the mark, and then 20 mL of MHA culture medium was added to the rest of the drug-containing culture medium, mixed evenly, that is, the 2-fold diluted drug-containing culture medium; 20 mL was aspirated and added to the petri dish consistent with the mark, and then diluted to the 10th concentration and the […] respectively by repeating the above-mentioned steps, and then poured into the petri dish.
(§6) 4 bacterial control petri dishes without drug were prepared at the same time as a control.
(§7) The positioning needle and the inoculation needle were installed according to the order of placement of the colony on the inoculation plate. After inoculation, a bacterial solution circle was formed on the petri dish. After the bacterial solution was absorbed by the agar, the petri dish was placed in an incubator at 37° C. for overnight incubation (16-20 hours), and then taken out.
(§8) The minimum inhibitory concentrations of the compounds against the CRE and CSE strains were determined by the solid dilution method, and the results are shown in Tables 3 and 4.

Escherichia coli 11119 = details: E. coli 11119, CRE clinical isolate, MHA agar, 37° C., 16-20 hours, read-out: MIC
Protocol: as §1, §2, §3, §4, §5, §6, §7, §8

Klebsiella oxytoca 12391 = details: K. ox 12391, CRE clinical isolate, MHA agar, 37° C., 16-20 hours, read-out: MIC
Protocol: as §1, §2, §3, §4, §5, §6, §7, §8

Klebsiella oxytoca 14151 = details: K. ox 14151, CRE clinical isolate, MHA agar, 37° C., 16-20 hours, read-out: MIC
Protocol: as §1, §2, §3, §4, §5, §6, §7, §8

Klebsiella oxytoca 14153 = details: K. ox 14153, CRE clinical isolate, MHA agar, 37° C., 16-20 hours, read-out: MIC
Protocol: as §1, §2, §3, §4, §5, §6, §7, §8

[1] = system: Acinetobacter baumannii 6383; details: A.B 6383, CRE clinical isolate, MHA agar, 37° C., 16-20 hours, read-out: MIC
Protocol: (§9) CRE Acinetobacter baumannii 8476, 6383, a total of 2 strains; CRE Serratia marcescens 14541, a total of 1 strain; all collected in the Department of Infectious Diseases, West China Hospital, Chengdu, Sichuan Province, and kept in our laboratory.
as §1, §2, §3, §4, §5, §6, §7, §8

[2] = system: Acinetobacter baumannii 8476; details: A.B 8476, CRE clinical isolate, MHA agar, 37° C., 16-20 hours, read-out: MIC
Protocol: as §9, §1, §2, §3, §4, §5, §6, §7, §8

[3] = system: Serratia marcescens 14541; details: Sma 14541, CRE clinical isolate, MHA agar, 37° C., 16-20 hours, read-out: MIC
Protocol: as §9, §1, §2, §3, §4, §5, §6, §7, §8

SMILES | MIC (E. coli 11256) | MIC (Escherichia coli 11119) | MIC (Klebsiella oxytoca 12391) | MIC (Klebsiella oxytoca 14151) | MIC (Klebsiella oxytoca 14153) | MIC [1] | MIC [2] | MIC [3]
CC1(C)[C@H](NC(=O)/C(=N\O[C@@H](COc2ccc(C(=N)N[C@@H]3CCCNC3)cc2)C(=O)O)c2csc(N)n2)C(=O)N1OS(=O)(=O)O [AIC499, reference compound] | 0.06 µg/mL (≈ 0.0897 µM) | > 8 µg/mL | 1 µg/mL (≈ 1.5 µM) | 0.5 µg/mL (≈ 0.748 µM) | 1 µg/mL (≈ 1.5 µM) | 8 µg/mL (≈ 12 µM) | 2 µg/mL (≈ 2.99 µM) | > 8 µg/mL
CC1(C)[C@H](NC(=O)/C(=N\O[C@@H](COc2ccc3c(c2)CN(C(=N)N(CCCN)CCCN)C3)C(=O)O)c2csc(N)n2)C(=O)N1OS(=O)(=O)O [Compound 32] | < 0.015 µg/mL | 4 µg/mL (≈ 5.4 µM) | 0.125 µg/mL (≈ 0.169 µM) | 0.125 µg/mL (≈ 0.169 µM) | 0.125 µg/mL (≈ 0.169 µM) | 2 µg/mL (≈ 2.7 µM) | 2 µg/mL (≈ 2.7 µM) | 4 µg/mL (≈ 5.4 µM)
CC1(C)[C@H](NC(=O)/C(=N\O[C@@H](COc2ccc3c(c2)CN(C(=N)N[C@@H]2CCCNC2)C3)C(=O)O)c2csc(N)n2)C(=O)N1OS(=O)(=O)O [Compound 41] | 0.03 µg/mL (≈ 0.0423 µM) | 4 µg/mL (≈ 5.64 µM) | 0.25 µg/mL (≈ 0.352 µM) | 0.25 µg/mL (≈ 0.352 µM) | 0.25 µg/mL (≈ 0.352 µM) | 4 µg/mL (≈ 5.64 µM) | 2 µg/mL (≈ 2.82 µM) | > 8 µg/mL
CC1(C)[C@H](NC(=O)/C(=N\O[C@@H](COc2ccc3c(c2)CN(C(=N)NOCCN)C3)C(=O)O)c2csc(N)n2)C(=O)N1OS(=O)(=O)O [Compound 43] | 0.125 µg/mL (≈ 0.182 µM) | > 8 µg/mL | 1 µg/mL (≈ 1.46 µM) | 1 µg/mL (≈ 1.46 µM) | 1 µg/mL (≈ 1.46 µM) | > 8 µg/mL | 8 µg/mL (≈ 11.7 µM) | > 8 µg/mL
CC1(C)[C@H](NC(=O)/C(=N\O[C@@H](COc2ccc3c(c2)CN(C(=N)NCCN)C3)C(=O)O)c2csc(N)n2)C(=O)N1OS(=O)(=O)O [Compound 44] | 0.03 µg/mL (≈ 0.0448 µM) | 4 µg/mL (≈ 5.97 µM) | 0.25 µg/mL (≈ 0.373 µM) | 0.25 µg/mL (≈ 0.373 µM) | 0.25 µg/mL (≈ 0.373 µM) | 2 µg/mL (≈ 2.99 µM) | 1 µg/mL (≈ 1.49 µM) | > 8 µg/mL
CC1(C)[C@H](NC(=O)/C(=N\O[C@@H](COc2ccc3c(c2)CN(/C(=N\[C@@H]2CCCNC2)N[C@@H]2CCCNC2)C3)C(=O)O)c2csc(N)n2)C(=O)N1OS(=O)(=O)O [Compound 46] | 0.03 µg/mL (≈ 0.0378 µM) | 4 µg/mL (≈ 5.04 µM) | 0.25 µg/mL (≈ 0.315 µM) | 0.25 µg/mL (≈ 0.315 µM) | 0.25 µg/mL (≈ 0.315 µM) | 4 µg/mL (≈ 5.04 µM) | 4 µg/mL (≈ 5.04 µM) | > 8 µg/mL
